From ChEMBL document CHEMBL1156737, “Terpenoids. III: Synthesis and biological evaluation of 23-hydroxybetulinic acid derivatives as novel inhibitors of glycogen phosphorylase” (Bioorg Med Chem Lett, 2009)

Molecular target: T1, Glycogen phosphorylase, muscle form (Oryctolagus cuniculus, UniProt P00489)
T1 sequence (P00489 whole entry): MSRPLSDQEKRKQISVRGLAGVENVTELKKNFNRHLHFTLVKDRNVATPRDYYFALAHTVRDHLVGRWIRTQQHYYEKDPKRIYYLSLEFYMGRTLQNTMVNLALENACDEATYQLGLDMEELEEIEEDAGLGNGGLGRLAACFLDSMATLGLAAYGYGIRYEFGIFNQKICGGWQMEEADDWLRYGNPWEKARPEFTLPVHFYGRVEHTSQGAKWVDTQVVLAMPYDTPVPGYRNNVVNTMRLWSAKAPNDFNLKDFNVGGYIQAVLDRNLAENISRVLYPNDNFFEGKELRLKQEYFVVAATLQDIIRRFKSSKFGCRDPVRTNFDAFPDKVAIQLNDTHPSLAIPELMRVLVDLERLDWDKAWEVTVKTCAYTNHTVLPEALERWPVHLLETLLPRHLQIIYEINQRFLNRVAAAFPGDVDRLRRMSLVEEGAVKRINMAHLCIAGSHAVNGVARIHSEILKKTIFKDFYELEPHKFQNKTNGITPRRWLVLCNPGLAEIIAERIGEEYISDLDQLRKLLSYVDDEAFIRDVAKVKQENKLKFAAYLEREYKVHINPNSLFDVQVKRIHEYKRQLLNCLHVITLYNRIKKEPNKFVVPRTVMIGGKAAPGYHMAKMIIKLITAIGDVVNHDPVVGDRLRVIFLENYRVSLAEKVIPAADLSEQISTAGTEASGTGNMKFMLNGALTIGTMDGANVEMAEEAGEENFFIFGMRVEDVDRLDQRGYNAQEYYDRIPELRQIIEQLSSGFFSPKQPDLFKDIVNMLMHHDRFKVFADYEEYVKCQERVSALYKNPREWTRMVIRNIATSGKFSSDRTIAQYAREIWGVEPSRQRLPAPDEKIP
Experiment: Inhibition of rabbit muscle glycogen phosphorylase A assessed as release of phosphate from glucose-1-phosphate after 25 mins; call rule not given here

SMILES | IC50 (read-out: IC50) | IC50
C=C(C)[C@@H]1CC[C@]2(COC(C)=O)CC[C@]3(C)[C@H](CC[C@@H]4[C@@]5(C)CC[C@H](OC(C)=O)[C@@](C)(COC(C)=O)[C@@H]5CC[C@]43C)[C@@H]12 | 143 µM | –
C=C(C)[C@@H]1CC[C@]2(COC(=O)C(=O)NC(C)C)CC[C@]3(C)[C@H](CC[C@@H]4[C@@]5(C)CC[C@H](OC(=O)C(=O)NC(C)C)[C@@](C)(COC(=O)C(=O)NC(C)C)[C@@H]5CC[C@]43C)[C@@H]12 | 35.9 µM | –
C=C(C)[C@@H]1CC[C@]2(C(=O)NCCCCCCNC(=O)/C=C/C(=O)O)CC[C@]3(C)[C@H](CC[C@@H]4[C@@]5(C)CC[C@H](OC(C)=O)[C@@](C)(COC(C)=O)[C@@H]5CC[C@]43C)[C@@H]12 | 54.8 µM | –
C=C(C)[C@@H]1CC[C@]2(C(=O)NCCCCCCN)CC[C@]3(C)[C@H](CC[C@@H]4[C@@]5(C)CC[C@H](OC(C)=O)[C@@](C)(COC(C)=O)[C@@H]5CC[C@]43C)[C@@H]12 | 3.5 µM | –
C=C(C)[C@@H]1CC[C@]2(C(=O)NCCCN(CC)CC)CC[C@]3(C)[C@H](CC[C@@H]4[C@@]5(C)CC[C@H](OC(C)=O)[C@@](C)(COC(C)=O)[C@@H]5CC[C@]43C)[C@@H]12 | 72.8 µM | –
C=C(C)[C@@H]1CC[C@]2(COC(=O)CCC(=O)O)CC[C@]3(C)[C@H](CC[C@@H]4[C@@]5(C)CC[C@H](OC(=O)CCC(=O)O)[C@@](C)(COC(=O)CCC(=O)O)[C@@H]5CC[C@]43C)[C@@H]12 | 97.8 µM | –
C=C(C)[C@@H]1CC[C@]2(COC(=O)C(=O)OCC#CCO)CC[C@]3(C)[C@@H](CC[C@@H]4[C@@]5(C)CC[C@H](OC(=O)C(=O)OCC#CCO)[C@@](C)(COC(=O)C(=O)OCC#CCO)[C@@H]5CC[C@]43C)C12 (some centres undefined) | 19.1 µM | –
C=C(C)[C@@H]1CC[C@]2(C(=O)NCCCCCCNC(=O)CCC(=O)O)CC[C@]3(C)[C@H](CC[C@@H]4[C@@]5(C)CC[C@H](OC(C)=O)[C@@](C)(COC(C)=O)[C@@H]5CC[C@]43C)[C@@H]12 | 194 µM | –
C=C(C)[C@@H]1CC[C@]2(C(=O)NCCCC)CC[C@]3(C)[C@H](CC[C@@H]4[C@@]5(C)CC[C@H](OC(=O)C(=O)NCCCC)[C@@](C)(COC(=O)C(=O)NCCCC)[C@@H]5CC[C@]43C)[C@@H]12 | – | Not Active
C=C(C)[C@@H]1CC[C@]2(C(=O)OCC#CCO)CC[C@]3(C)[C@H](CC[C@@H]4[C@@]5(C)CC[C@H](O)[C@@](C)(CO)[C@@H]5CC[C@]43C)[C@@H]12 | 194 µM | –
C=C(C)[C@@H]1CC[C@]2(COC(=O)C(=O)NCCCC)CC[C@]3(C)[C@H](CC[C@@H]4[C@@]5(C)CC[C@H](OC(=O)C(=O)NCCCC)[C@@](C)(COC(=O)C(=O)NCCCC)[C@@H]5CC[C@]43C)[C@@H]12 | 34.7 µM | –
C=C(C)[C@@H]1CC[C@]2(C(=O)NCCCCCCNCC)CC[C@]3(C)[C@H](CC[C@@H]4[C@@]5(C)CC[C@H](OC(C)=O)[C@@](C)(COC(C)=O)[C@@H]5CC[C@]43C)[C@@H]12 | 29.5 µM | –
C=C(C)[C@@H]1CC[C@]2(C(=O)OCCCCCC)CC[C@]3(C)[C@H](CC[C@@H]4[C@@]5(C)CC[C@H](O)[C@@](C)(CO)[C@@H]5CC[C@]43C)[C@@H]12 | 69.1 µM | –
C=C(C)[C@@H]1CC[C@]2(C(=O)OCCBr)CC[C@]3(C)[C@H](CC[C@@H]4[C@@]5(C)CC[C@H](O)[C@@](C)(CO)[C@@H]5CC[C@]43C)[C@@H]12 | 289 µM | –
C=C(C)[C@@H]1CC[C@]2(C(=O)NCCCCCCN(CC)CC)CC[C@]3(C)[C@H](CC[C@@H]4[C@@]5(C)CC[C@H](OC(C)=O)[C@@](C)(COC(C)=O)[C@@H]5CC[C@]43C)[C@@H]12 | 55.6 µM | –
C=C(C)[C@@H]1CC[C@]2(C(=O)OCC#CCOC(=O)CCC(=O)O)CC[C@]3(C)[C@H](CC[C@@H]4[C@@]5(C)CC[C@H](OC(C)=O)[C@@](C)(COC(C)=O)[C@@H]5CC[C@]43C)[C@@H]12 | 94.5 µM | –
C=C(C)[C@@H]1CC[C@]2(C(=O)OCCN(CCCCCCNC(C)=O)C(C)=O)CC[C@]3(C)[C@H](CC[C@@H]4[C@@]5(C)CC[C@H](OC(C)=O)[C@@](C)(COC(C)=O)[C@@H]5CC[C@]43C)[C@@H]12 | 96.6 µM | –
C=C(C)[C@@H]1CC[C@]2(C(=O)NCCCN)CC[C@]3(C)[C@H](CC[C@@H]4[C@@]5(C)CC[C@H](O)[C@@](C)(CO)[C@@H]5CC[C@]43C)[C@@H]12 | 23.8 µM | –
C=C(C)[C@@H]1CC[C@]2(C(=O)NCC(=O)N[C@@H](Cc3ccccc3)C(=O)O)CC[C@]3(C)[C@H](CC[C@@H]4[C@@]5(C)CC[C@H](O)[C@@](C)(CO)[C@@H]5CC[C@]43C)[C@@H]12 | 129 µM | –
C=C(C)[C@@H]1CC[C@]2(C(=O)NCCCN)CC[C@]3(C)[C@H](CC[C@@H]4[C@@]5(C)CC[C@H](OC(C)=O)[C@@](C)(COC(C)=O)[C@@H]5CC[C@]43C)[C@@H]12 | 15.2 µM | –
C=C(C)[C@@H]1CC[C@]2(C(=O)NCCCCCCNC(C)=O)CC[C@]3(C)[C@H](CC[C@@H]4[C@@]5(C)CC[C@H](OC(C)=O)[C@@](C)(COC(C)=O)[C@@H]5CC[C@]43C)[C@@H]12 | 34.1 µM | –
C=C(C)[C@@H]1CC[C@]2(C(=O)NCC(=O)O)CC[C@]3(C)[C@H](CC[C@@H]4[C@@]5(C)CC[C@H](O)[C@@](C)(CO)[C@@H]5CC[C@]43C)[C@@H]12 | 67.7 µM | –
C=C(C)[C@@H]1CC[C@]2(C(=O)OCCCCCCOC(=O)c3ccccc3C(=O)O)CC[C@]3(C)[C@H](CC[C@@H]4[C@@]5(C)CC[C@H](OC(C)=O)[C@@](C)(COC(C)=O)[C@@H]5CC[C@]43C)[C@@H]12 | 69.2 µM | –
C=C(C)[C@@H]1CC[C@]2(C(=O)OC3CCCCC3)CC[C@]3(C)[C@H](CC[C@@H]4[C@@]5(C)CC[C@H](O)[C@@](C)(CO)[C@@H]5CC[C@]43C)[C@@H]12 | 50.4 µM | –
C=C(C)[C@@H]1CC[C@]2(COC(=O)C(=O)OC)CC[C@]3(C)[C@H](CC[C@@H]4[C@@]5(C)CC[C@H](OC(=O)C(=O)OC)[C@@](C)(COC(=O)C(=O)OC)[C@@H]5CC[C@]43C)[C@@H]12 | 30.1 µM | –
C=C(C)[C@@H]1CC[C@]2(C(=O)O)CC[C@]3(C)[C@H](CC[C@@H]4[C@@]5(C)CC[C@H](O)[C@@](C)(CO)[C@@H]5CC[C@]43C)[C@@H]12 | 103 µM | –
C=C(C)[C@@H]1CC[C@]2(C(=O)NCC(=O)N[C@@H](Cc3ccccc3)C(=O)OC)CC[C@]3(C)[C@H](CC[C@@H]4[C@@]5(C)CC[C@H](O)[C@@](C)(CO)[C@@H]5CC[C@]43C)[C@@H]12 | 40.6 µM | –
C=C(C)[C@@H]1CC[C@]2(C(=O)NCC(=O)OC)CC[C@]3(C)[C@H](CC[C@@H]4[C@@]5(C)CC[C@H](OC(C)=O)[C@@](C)(COC(C)=O)[C@@H]5CC[C@]43C)[C@@H]12 | 103 µM | –
C=C(C)[C@@H]1CC[C@]2(C(=O)NCCCCCCN)CC[C@]3(C)[C@H](CC[C@@H]4[C@@]5(C)CC[C@H](O)[C@@](C)(CO)[C@@H]5CC[C@]43C)[C@@H]12 | 10.2 µM | –
